The values below are quoted from earlier work in publication PMC3357532, “Intracellular Loop 2 Peptides of the Human 5HT1a Receptor are Differential Activators of Gi” (International Journal of Peptides, 2012).

The target of one data set is T1, H5-HT1aR (Homo sapiens, UniProt P08908).
T1 construct: expressed in transfected cells; host or cells: CHO cells (Chinese hamster ovary), crude membranes
T1 sequence (P08908 1-422): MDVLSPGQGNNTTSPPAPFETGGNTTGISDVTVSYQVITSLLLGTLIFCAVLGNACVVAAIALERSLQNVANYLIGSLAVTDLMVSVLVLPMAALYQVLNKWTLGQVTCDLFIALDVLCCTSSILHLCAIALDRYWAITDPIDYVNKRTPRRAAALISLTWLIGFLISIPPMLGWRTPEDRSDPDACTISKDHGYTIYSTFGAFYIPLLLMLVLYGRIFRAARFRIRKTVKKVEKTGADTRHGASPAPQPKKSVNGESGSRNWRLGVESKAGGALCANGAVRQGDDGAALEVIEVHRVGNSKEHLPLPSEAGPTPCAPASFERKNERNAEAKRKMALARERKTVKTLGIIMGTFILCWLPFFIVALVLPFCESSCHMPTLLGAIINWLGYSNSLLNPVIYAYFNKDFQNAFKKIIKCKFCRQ
Conditions: ref Hayataka et al., 1998 [49], cited from earlier work. From the text:
(§1) Table 2 ic2 Peptide mimic effect on [3H]8-OH-DPAT binding. All binding inhibition values are percent of control agonist (ag.) bound. The upper portion of the table is for peptides nearer the C-terminus, including P11 from Thiagaraj et al., 2007 [53]. These peptides decreased the specific high affinity binding of 5HT1aR agonist [^3H]-8-OH-DPAT by 50% at the given concentration. The lower portion | column: Conc. (uM); % cont. ag, bound, (SEM) || Table 3 ic3 Peptide mimic coupling and signal transduction data. Summary of data generated for all ic3 experiments with P12 and P13. P1 is included as a reference, from Hayataka et al., 1998 [49]. Nominal values for control agonist binding were 400 fmoles/mg protein. | column: Agonist (%) inhibition

For data set [1], the system named is CHO cells expressing the human 5HT1aR. Conditions: peptide 10 uM; ref Hayataka et al., 1998 [49]; read-out: % Inhibition of FSK-stimulated cAMP; cited from earlier work.
Excerpt: as §1, with “[cAMP]” for “Conc. (uM); % cont. ag, bound,”, “% Inhibition of FSK-stimulated cAMP” for “Agonist (%) inhibition”

The test system of data set [2] is Gi in H5-HT1aR membranes from transfected CHO cells. Conditions: peptide 1 uM; ref Hayataka et al., 1998 [49]; cited from earlier work.
Excerpt: as §1, with “GTP Incorp.” for “Conc. (uM); % cont. ag, bound,”, “[35S]-γ-S-GTP incorporation% above conro” for “Agonist (%) inhibition”

What is called inhibition is the change of the read-out against control, counted positive when it falls. For IFRAARFRIRKTVKK [P1*], the IC50 with H5-HT1aR ([3H]8-OH-DPAT, read-out: Agonist (%) inhibition: concentration giving 50% (IC50)) is 3 µM. In addition, the inhibition is 50% at H5-HT1aR (peptide 3 uM, read-out: Agonist (%) inhibition) and 10% in data set [1]. For the same sequence, in data set [2], the “[35S]-γ-S-GTP incorporation% above conro” value was 30%.
